Results taken from article PMC6828666, “Discovery of holoenzyme-disrupting chemicals as substrate-selective CK2 inhibitors” (Scientific Reports, 2019).

Columns and labels:
[1] = target: T1, CK2 holoenzyme complexes in MCF10A cells (Homo sapiens, UniProt P68400); test: In situ proximity ligation assay (PLA); format: cell-based; settings: 50 μM, 3 h, DMSO control 16 ± 4
T1 construct: endogenous in cells; host or cells: MCF10A
Description: In situ PLAs were performed using a Duolink kit (Olink Bioscience, Uppsala, Sweden) according to the manufacturer’s instructions with few modifications. MCF10A cells were fixed in 4% paraformaldehyde for 10 min. The cells were then permeabilized with 0.1% Triton in Tris-buffered saline (TBS; 50 mM Tris, pH 7.6, 150 mM NaCl) and incubated with 100 mM glycine in phosphate-buffered saline (137 mM NaCl, 2.7 mM KCl, 10 mM Na2 HPO4, and 1.8 mM KH2 PO4, pH 7.4) for 20 min. Permeabilized cells were incubated overnight at 4 °C with primary antibodies diluted as follows: mouse CK2α 1:250 and rabbit CK2β 1:50. Cells were washed three times in TBS with 0.05% Tween-20 for 5 min each with gentle agitation. Secondary antibodies conjugated with oligonucleotides, PLA probe anti-mouse MINUS and PLA probe anti-rabbit PLUS, were added to the cells and incubated for 90 min at 37 °C in a humidity chamber. Finally, after ligation and amplification steps, cells were counterstained with the DNA-binding dye Hoechst and Phaloïdine-488 for actin staining (Molecular Probes, Thermo Fisher Scientific, Courtaboeuf, France). Images were observed using a Zeiss Apotome microscope and analyzed using a Zen Pro imaging software (Zeiss, Oberkochen, Germany). Quantification was performed using the BlobFinder software (V3.2, Swedish University of Agricultural Sciences, Uppsala University)[67]. […]

[2] = system: MDA-MB231 cells; test: Apoptosis by annexin V/propidium iodide staining; format: cell-based; settings: MDA-MB231, 40 μM, AV/PI staining
Description: Cells plated at equal density (2 × 10^4 cells/well) were treated with the indicated inhibitors in cell culture medium containing 0.5 μg/ml Propidium iodide (Sigma-Aldrich). Images of PI-stained red fluorescent cells were captured every 3 h for the duration of the experiment. For apoptosis detection, 50 μL/mL fluorochrome-conjugated Annexin V (Molecular Probes) was added to the medium together with Propidium iodide and apoptotic cell numbers were calculated.
Fig. S12. […] Cell viability was assessed by Annexin V staining (a) or PI staining (b) using the Essen IncuCyte Zoom live-cell microscopy incubator. Images were captured every hour for the duration of the experiment. Error bars represent the SEM of two biological replicates derived from technical triplicates.

[3] = system: Akt phosphorylation at Ser129 in MCF10A cells; test: Western blot of Akt Ser129 phosphorylation; format: cell-based, human; settings: 48 h
Description: Figure 5 Cellular effects of compounds 3, 4 and 6. MCF10A cells were incubated for 24 h with either DMSO or 30 μM TAT or 30 μM TAT-Pc or 25 μM 6 (a) or with increasing concentrations of 6 (b) or 3 (c). MCF10A cells were incubated for 48 h with either DMSO or with increasing concentrations of 3 or 6 (d). Cells were then lysed and analyzed by western blot with the indicated antibodies. Blot images are representative of at least three independent experiments. Uncropped blots are shown in Supplementary Fig. S16. (e) MDA-MB231 cells were treated with 40 μM 6 (⚬), 4 (▴) or 3 (X). (f) MDA-MB231 cells were treated for 30 h with increasing concentrations of 6 (⚬) or 4 (▴). Insert: cells were treated for 30 h with 80 μM 6 or 10 μM CX-4945. […] Cell death was automatically quantified from images captured every 3 h for the duration of the experiments using an Essen IncuCyte Zoom live-cell microscopy incubator. […]
(§1) Cells were lysed in RIPA buffer (10 mM Tris-HCl pH 7.4, 150 mM NaCl, 1% Triton X-100, 0.1% SDS, 0.5% DOC and 1 mM EDTA) containing both protease- and phosphatase-inhibitor cocktails (Sigma-Aldrich; P8340, P2850, P5726). Cell homogenates were quantified using BCA protein Assay kit (Thermo Scientific). […] Luminata Forte Western HRP substrate (Millipore) was added and membranes were read with Fusion Fx7 (PerkinElmer). […] Images were analyzed and band intensities were quantified using ImageJ software. […]

[4] = system: p21 phosphorylation at Thr145 in MCF10A cells; test: Western blot of p21 Thr145 phosphorylation; format: cell-based, human; settings: 24 h
Description: Figure 5 Cellular effects of compounds 3, 4 and 6. MCF10A cells were incubated for 24 h with either DMSO or 30 μM TAT or 30 μM TAT-Pc or 25 μM 6 (a) or with increasing concentrations of 6 (b) or 3 (c). MCF10A cells were incubated for 48 h with either DMSO or with increasing concentrations of 3 or 6 (d). Cells were then lysed and analyzed by western blot with the indicated antibodies. Blot images are representative of at least three independent experiments. Uncropped blots are shown in Supplementary Fig. S16. (e) MDA-MB231 cells were treated with 40 μM 6 (⚬), 4 (▴) or 3 (X). (f) MDA-MB231 cells were treated for 30 h with increasing concentrations of 6 (⚬) or 4 (▴). Insert: cells were treated for 30 h with 80 μM 6 or 10 μM CX-4945. (g) Cells were incubated with 80 μM 6 or 4 in the absence or presence of 20 μM Z-VAD. […] (h) MDA-MB231 cells (⚬) or MCF10A cells (⦁) were incubated for 24 h with 80 μM 6. Cell death was automatically quantified from images captured every 3 h for the duration of the experiments using an Essen IncuCyte Zoom live-cell microscopy incubator. Error bars represent the SEM of two biological replicates derived from technical triplicates.
as §1, with “Scientific). SDS-PAGE was performed using pre-cast 4–12% gradient gel (Bio-Rad) and submitted to electrophoresis in NuPAGE buffer (150 V for 75 min). Separated proteins at 20 μg/lane were transferred to PVDF membranes (100 V for 60 min).” for “Scientific).”

[5] = system: MCF10A cells; test: Scratch wound cell migration assay; format: cell-based, human; settings: 40 μM
Description: Cells seeded at equal density were allowed to grow to confluence overnight. The Essen Bioscience WoundMaker^TM, an accessory for the IncuCyte Zoom®, was utilized to create Scratch-wounds of a standardized width (~600 μm). Cells were treated with the indicated inhibitors and imaged every 15 min for 44 h and the percentage of wound confluence was analyzed.
Fig. S10. […] MCF10A cells (a) or MDA-MB231 cells (b) were allowed to grow to confluence overnight. Wounds of a standardized width were created using the Essen Bioscience WoundMakerTM. […] Wound closure was monitored using the Essen IncuCyte Zoom live-cell microscopy incubator. Images were captured every 2 h for the duration of the experiment. Error bars represent the SEM of two biological replicates derived from technical triplicates.

T1 sequence (P68400 whole entry, one chain of several): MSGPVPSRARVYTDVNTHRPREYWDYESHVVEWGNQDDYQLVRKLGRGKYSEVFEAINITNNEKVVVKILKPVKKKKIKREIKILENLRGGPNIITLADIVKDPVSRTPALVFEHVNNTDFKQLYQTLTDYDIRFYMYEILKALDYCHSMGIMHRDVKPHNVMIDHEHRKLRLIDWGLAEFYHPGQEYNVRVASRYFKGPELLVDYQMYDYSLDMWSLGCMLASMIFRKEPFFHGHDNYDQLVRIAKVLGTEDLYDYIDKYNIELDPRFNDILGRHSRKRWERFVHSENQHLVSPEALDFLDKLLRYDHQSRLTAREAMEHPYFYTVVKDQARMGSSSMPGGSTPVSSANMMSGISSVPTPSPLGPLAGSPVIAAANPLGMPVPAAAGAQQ

SMILES	CK2 holoenzyme complexes (PLA dots) [1] [dots/cell]	exposure time after which apoptosis was detected [2] [h]	Akt phosphorylation at Ser129 ([3]; 30 µM)	concentration at which p21 Thr145 phosphorylation reaches the maximum [4] [µM]	p21 Thr145 phosphorylation ([4]; increasing concentrations)	cell migration / wound closure [5]	induction of apoptosis [2]	Akt phosphorylation at Ser129 ([3]; 100 µM)	p21 phosphorylation ([4]; 100 μM)
COc1[nH]c2ccc(F)cc2c1C(=O)OCC1CCN(CCNS(=O)(=O)c2ccccc2)CC1.Cl [Compound 6]	6 ± 2	8	slight but not statistically significant alteration	20	striking dose-dependent increase	completely abrogated			
O=C(OCC1CCN(CCNS(=O)(=O)c2ccccc2)CC1)c1c[nH]c2ccccc12 [Compound 4, (1-(2-(Phenylsulfonamido)ethyl)piperidin-4-yl)methyl 1H-indole-3-carboxylate]	8 ± 2								
CS(=O)(=O)NCCN1CCC(COC(=O)c2c[nH]c3ccccc23)CC1 [Compound 3, (1-(2-(Methylsulfonamido)ethyl)piperidin-4-yl)methyl 1H-indole-3-carboxylate]						not affected	unable to induce apoptosis	slight but not statistically significant alteration	moderate increase
